Results as given in US20100048519A1, “METHODS OF TREATMENT FOR ULCERATIVE COLITIS USING AMINOSALICYLATE” (priority 2006, published 2010).

Legend:
Format in all cases: in vivo, human
[1] = tested on: person diagnosed with moderate Ulcerative colitis; assay: Single-patient treatment examples (Examples 2-5): person diagnosed with moderate ulcerative colitis
Excerpt: A 70 kg person diagnosed with moderate Ulcerative colitis is prescribed a pharmaceutical oral composition comprising 1.2 g of olsalazine (mol. wt. 302.24), a mesalamine dimer, two tablets to be taken twice daily for a total of 4.8 g/day of the 5-ASA dimer (5-ASA mol. wt.=153.14). The patient takes two tablets of the pharmaceutical in the morning and two tablets in the evening such that about 4.8 g/day of 5-ASA is delivered. The Physician's Global Assessment (PGA) score improves in comparison to baseline and rectal bleeding reduces. A 72 kg person diagnosed with moderate Ulcerative colitis is prescribed a pharmaceutical composition comprising four 1.2 g mesalamine delayed-release tablets, to be taken once daily. The four tablets are taken in the morning so that 4.8 g/day of 5-ASA is delivered. The Physician's Global Assessment (PGA) score improves in comparison to baseline and rectal bleeding reduces. A 75 kg person diagnosed with moderate Ulcerative colitis is prescribed a pharmaceutical oral composition comprising two 1.2 g balsalazide delayed-release tablets, to be taken three times daily for a total of 7.2 g/day of balsalazide; this regimen is calculated to deliver about 3.1 g of 5-ASA. The Physician's Global Assessment (PGA) score improves in comparison to baseline and rectal bleeding reduces. A 71 kg person diagnosed with moderate Ulcerative colitis is prescribed a pharmaceutical composition comprising a rectal mesalamine foam. The foam is administered three times per day (morning, afternoon, and evening) such that 1 g of mesalamine is administered at each interval for a total of 3 g of mesalamine per day. The Physician's Global Assessment (PGA) score improves in comparison to baseline and rectal bleeding is reduced.

[2] = tested on: male patients with moderate ulcerative colitis; assay: Study 2: phase III, multi-center, randomized, double-blind, controlled clinical trial, overall improvement (treatment success) at week 6; conditions: moderate disease
Protocol: (§1) Administration of mesalamine at 4.8 g/day via three daily doses consisting of two, 800 mg dosage tablets provides a clear efficacy benefit over 2.4 g/day of mesalamine given as three daily doses consisting of two, 400 mg dosage tablets and addresses an unmet medical need for men with moderate ulcerative colitis. […] Data from patients with mild to moderate Ulcerative colitis (UC) are combined and analyzed from two phase III, multi-center, randomized, double-blind, controlled clinical trials of identical design assessing the safety and clinical efficacy of the increased dosage of 5-ASA. The two clinical trials are referred to herein as “Study 1” and “Study 2.” The primary endpoint is the percentage of moderate UC patients achieving overall improvement (i.e., treatment success) from baseline at week 6. This is defined as: (1) complete response (remission); complete resolution of signs and symptoms (stool frequency, rectal bleeding, Patient Functional Assessment (PFA) and sigmoidoscopy score) and a Physician's Global Assessment (PGA) of 0; or (2) partial response; improvement from baseline in the PGA score and improvement in at least one clinical assessment (stool frequency, rectal bleeding, PFA or sigmoidoscopy score) and no worsening in any of the other clinical assessments. […]

[3] = tested on: male patients with moderate ulcerative colitis; assay: Study 1: phase III, multi-center, randomized, double-blind, controlled clinical trial, overall improvement (treatment success) at week 6; conditions: moderate disease
Protocol: as §1

[4] = tested on: male patients with moderate ulcerative colitis; assay: Bayesian analysis of success rate in men with moderate disease
Protocol: In addition, a Bayesian analysis is conducted to calculate the probability that treatment with the 4.8 g/day dose in men results in a higher success rate than treatment with the 2.4 g/day dose. This type of analysis considers data from any previous studies conducted using either of the two dose levels. Success rates from male patients with moderate disease at baseline from three previous mesalamine studies are used to estimate the prior distributions for the 2.4 g/day dose and the 4.8 g/day dose. Using these prior distributions and Bayes analyses, the “posterior distribution” is calculated for each dose level based on the data obtained from […].

[5] = tested on: male patients with moderate ulcerative colitis; assay: Study 1 and Study 2 combined: subgroup analyses and safety
Protocol: Data from patients with mild to moderate Ulcerative colitis (UC) are combined and analyzed from two phase III, multi-center, randomized, double-blind, controlled clinical trials of identical design assessing the safety and clinical efficacy of the increased dosage of 5-ASA. The two clinical trials are referred to herein as “Study 1” and “Study 2.” Pre-specified subgroup analyses for fifty-four demographic and baseline characteristics are performed in patients with moderately active disease (PGA score=2) to assess consistency of primary endpoint. […] To further evaluate the robustness of the results in men with moderate disease, whisker plots (i.e., point estimate and 95% confidence interval for the difference between the 2.4 g/day group and the 4.8 g/day group) for various subgroups defined on the basis of baseline characteristics (e.g., disease severity, demographic parameters) are prepared. […] FIG. 1 (a) is a subgroup analysis of treatment outcome at week 6 for male patients with moderate disease for Study 1 and Study 2 combined; (b) is a subgroup analysis of treatment outcome at week 6 for female patients with moderate disease for Study 1 and Study 2 combined. FIG. 2 (a) is a subgroup analysis of treatment outcome at week 6 for male patients with moderate disease for Study 1 and Study 2 combined; (b) is a subgroup analysis of treatment outcome at week 6 for female patients with moderate disease for Study 1 and Study 2 combined. FIG. 3 (a) is a subgroup analysis of treatment outcome at week 6 for male patients with moderate disease for Study 1 and Study 2 combined; (b) is a subgroup analysis of treatment outcome at week 6 for female patients with moderate disease for Study 1 and Study 2 combined. […]

[6] = Example 4, oral, two 1.2 g delayed-release tablets three times daily, 7.2 g/day (about 3.1 g 5-ASA), 75 kg person
[7] = Example 3, four 1.2 g delayed-release tablets once daily, 4.8 g/day, 72 kg person

In the case of `O=C(O)c1cc(N=Nc2ccc(O)c(C(=O)O)c2)ccc1O` [olsalazine, 3,3′-dicarboxy-4,4′-dihydroxyazobenzene], the “Physician's Global Assessment (PGA) score in comparison to baseline” value (from here on “Physician's Global Assessment”) ([1]; Example 2, oral, two 1.2 g tablets twice daily, 4.8 g/day, 70 kg person) is reported as “improves”.
`O=C(O)CCNC(=O)c1ccc(/N=N/c2ccc(O)c(C(=O)O)c2)cc1` [balsalazide, (E)-5-[[4-[[(2-carboxyethyl)amino]carbonyl]phenyl]azo]-2-hydroxybenzoic acid] was tested, and the “Physician's Global Assessment” value [1, 6] was “improves” and the Rectal bleeding [1, 6] was “reduces”.
With `Nc1ccc(O)c(C(=O)O)c1` [mesalamine, 5-amino-2-hydroxybenzoic acid] the “Physician's Global Assessment” value [1, 7] was “improves”, the Rectal bleeding [1, 7] was “reduces” and the “Difference in Proportions (4.8 g/day vs 2.4 g/day)” value (from here on “Difference in Proportions”) ([2]; Primary Analysis) was 27.5%. The “Difference in Proportions” value ([2]; Set-to-Failure analysis) was 24.8%, the “Difference in Proportions” value ([3]; Primary Analysis) was 25.5% and the “Difference in Proportions” value ([3]; Set-to-Failure analysis) was 27.3%. For the same compound, the “Probability of a successful treatment outcome (Bayes analysis)” value ([4]; 2.4 g/day dose, 95% credible interval 35.7%, 58.9%) was 47.2%, the “Probability of a successful treatment outcome (Bayes analysis)” value ([4]; 4.8 g/day dose, 95% credible interval 64.9%, 83.5%) was 74.7% and the “Probability that 4.8 g/day dose results in a higher success rate than 2.4 g/day dose” value ([4]; Bayes analysis) was 99.97%. The “Safety profile of 4.8 g/day regimen versus 2.4 g/day regimen” value ([5]; 4.8 g/day (800 mg tablet) vs 2.4 g/day (400 mg tablet), oral delayed-release) was “comparable”, the “Difference between 4.8 g/day group and 2.4 g/day group across pre-specified subgroups” value ([5]; males with moderate disease, combined population, 51 of 54 subgroups) was “consistently superior to the 2.4 g/day group” and the “Observed differences in success rate between treatment groups (4.8 vs 2.4 g/day)” value ([5]; men with moderate disease, both studies) was “approximately 25%”.
